Measured values published in the supplement of paper PMC10307832.

Tests used:
Test in all cases: relative viability (nuclei count vs DMSO), 5 days (fraction); higher = more cells survive
[1] = compound: Cc1ccc2nc(NCCN)c3ncc(C)n3c2c1 + O=C(CCCCCCC(=O)Nc1ccccc1)NO [Vorinostat] (partner 1 µM)
In short: (§1)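 Five library-drug doses in √10 steps were combined with a fixed anchor-drug dose, or a single drug was given alone, by pin tool to lung cancer cell lines in 1536-well plates the day after seeding. Nuclei were stained and counted after 5 days. Relative viability is the nuclei count in treated wells over that in vehicle wells, taken as the median of duplicate plates.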

[2] = compound: Cc1ccc2nc(NCCN)c3ncc(C)n3c2c1 + Nc1nc2[nH]cc(CCc3ccc(C(=O)N[C@@H](CCC(=O)O)C(=O)O)cc3)c2c(=O)[nH]1 [Pemetrexed] (partner 0.2 µM)
In short: as §1

[3] = compound: Cc1ccc2nc(NCCN)c3ncc(C)n3c2c1 + CS(=O)(=O)CCNCc1ccc(-c2ccc3ncnc(Nc4ccc(OCc5cccc(F)c5)c(Cl)c4)c3c2)o1 [Lapatinib] (partner 2 µM)
In short: as §1

[4] = compound: Cc1ccc2nc(NCCN)c3ncc(C)n3c2c1 + COc1cccc2cc(-c3nc([C@H]4CC[C@H](C(=O)O)CC4)n4ncnc(N)c34)[nH]c12 [OSI-027] (partner 0.5 µM)
In short: as §1

UMC-11 gave a relative viability ([1]; first compound 0.04 µM) of 0.421, a relative viability ([1]; first compound 0.1265 µM) of 0.344 and a relative viability ([1]; first compound 0.4 µM) of 0.372. It also gave a relative viability ([1]; first compound 1.265 µM) of 0.371, a relative viability ([1]; first compound 4 µM) of 0.357 and a relative viability ([2]; first compound 0.04 µM) of 0.858. For the same cell line, the relative viability ([2]; first compound 0.1265 µM) was 0.744, the relative viability ([2]; first compound 0.4 µM) was 0.808 and the relative viability ([2]; first compound 1.265 µM) was 0.734. The relative viability ([2]; first compound 4 µM) was 0.674, the relative viability ([3]; first compound 0.04 µM) was 1.03 and the relative viability ([3]; first compound 0.1265 µM) was 1.04. It also gave a relative viability ([3]; first compound 0.4 µM) of 0.877, a relative viability ([3]; first compound 1.265 µM) of 0.898 and a relative viability ([3]; first compound 4 µM) of 0.91. For the same cell line, the relative viability ([4]; first compound 0.04 µM) was 0.51, the relative viability ([4]; first compound 0.1265 µM) was 0.471 and the relative viability ([4]; first compound 0.4 µM) was 0.481. For the same cell line, the relative viability ([4]; first compound 1.265 µM) was 0.416 and the relative viability ([4]; first compound 4 µM) was 0.47.
